# Laboratory results taken from ChEMBL document CHEMBL1201862, “PubChem BioAssay data set” (2004).
# Activity calls are given as the source filed them.
# Key:
# [1] = target: T1, Tyrosyl-DNA phosphodiesterase 2 (Homo sapiens, UniProt O95551); experiment: human TDP2 enzyme inhibitors, dose response, biochemical, epi absorbance, IC50 (AID 743297)
# T1 sequence (O95551 whole entry): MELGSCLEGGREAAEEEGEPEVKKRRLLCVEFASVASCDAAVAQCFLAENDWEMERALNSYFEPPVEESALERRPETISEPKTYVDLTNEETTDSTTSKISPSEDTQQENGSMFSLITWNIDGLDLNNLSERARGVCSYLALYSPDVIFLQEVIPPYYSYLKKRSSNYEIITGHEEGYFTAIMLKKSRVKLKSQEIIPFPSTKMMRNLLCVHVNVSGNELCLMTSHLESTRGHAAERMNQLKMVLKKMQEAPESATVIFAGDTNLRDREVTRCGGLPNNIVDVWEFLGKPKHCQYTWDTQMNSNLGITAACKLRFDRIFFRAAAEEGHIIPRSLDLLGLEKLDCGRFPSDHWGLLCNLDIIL
# [2] = CRF-BP/CRF-R2 complex antagonists, dose response, cell-based, uHTS hits, 384-well (AID 651639); format: functional, Homo sapiens; conditions: read-out: IC50_Mean
# [3] = test system: Streptococcus sp. 'group A'; experiment: growth inhibition of control SK(-) GAS strain, dose response, counter-screen for streptokinase expression inhibitor project, luminescence, kanamycin, BacTiterGlo, confirmation (AID 1900); format: functional, organism-based
# Streptococcus = experiment: Group A Streptococcus viability loss, dose response, counter-screen for streptokinase expression inhibitor project, luminescence, BacTiterGlo (AID 1915); format: functional, organism-based;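 also: potency for reduction of bacterial viability or growth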
# Paired box protein Pax-8 = Paired box protein Pax-8 (Homo sapiens, UniProt Q06710); experiment: inhibitors of PAX8-driven TPO luciferase reporter, dose response, RMG-I cells, cherry-pick (AID 687027); format: functional, cell-based;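 also: luciferase reporter driven by Pax8 target thyroperoxidase promoter measured by SteadyGlo luminescence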
# [4] = non-specific cell cytotoxicity, dose response, cytotoxicity control for PAX8 inhibitor project, plate reader, dry powder samples (AID 743021); format: functional, cell-based
# cells [5] = format: functional, cell-based
# INS1 = experiment: beta cell apoptosis inhibitors, cytokine rescue, dose response, luminescence, retest (AID 449756); format: functional, cell-based; conditions: Rattus norvegicus;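 also: cell death triggered by IL-1 beta plus TNF-alpha plus IFN-gamma mixture; protective hits raise ATP signal compared with cytokine alone wells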
# [6] = control 3'UTR Renilla luciferase suppression, dose response, counter-screen for Shn3 inhibitor project, cell-based, Clone20-Shn3RL, cherry-picked (AID 624133); format: functional
# [7] = target: T2, Microphthalmia-associated transcription factor (Homo sapiens, UniProt O75030); experiment: TRPM1 promoter luciferase signal decrease, dose response, MITF inhibitor project, cell-based, SK-MEL-5, cherry-picked, set 3 (AID 493073); format: functional
# T2 sequence (O75030 whole entry): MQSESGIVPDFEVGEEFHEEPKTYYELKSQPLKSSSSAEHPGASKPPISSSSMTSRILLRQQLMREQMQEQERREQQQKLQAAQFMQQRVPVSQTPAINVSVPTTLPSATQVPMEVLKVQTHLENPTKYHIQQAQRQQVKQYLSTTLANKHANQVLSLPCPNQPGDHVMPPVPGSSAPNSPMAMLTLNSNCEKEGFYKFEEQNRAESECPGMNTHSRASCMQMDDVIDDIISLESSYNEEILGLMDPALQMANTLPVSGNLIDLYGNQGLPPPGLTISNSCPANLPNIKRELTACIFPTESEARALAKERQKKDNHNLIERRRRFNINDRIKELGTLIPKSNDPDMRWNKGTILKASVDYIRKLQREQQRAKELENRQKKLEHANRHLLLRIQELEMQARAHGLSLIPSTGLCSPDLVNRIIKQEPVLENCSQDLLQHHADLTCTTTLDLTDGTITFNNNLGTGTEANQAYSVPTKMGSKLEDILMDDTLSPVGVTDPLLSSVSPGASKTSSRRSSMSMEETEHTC
# [8] = Shn3 3'UTR reporter inhibitors, dose response, cell-based, Clone20 osteoblasts, firefly luciferase, cherry-picked (AID 624132); format: functional;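 also: firefly luciferase luminescence from reporter carrying the Shn3 3'UTR in osteoblasts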
# cells [9] = format: functional, cell-based; remark: listed apart in the source
# [10] = HepG2 cell cytotoxicity, dose response, cytotoxicity control for Shn3 inhibitor project, CellTiter-Glo, cherry-picked (AID 624134); format: functional, cell-based
# [11] = target: Mitogen-activated protein kinase 10 (Homo sapiens, UniProt P53779); experiment: Dose response biochemical screening assay for inhibitors of c-Jun N-Terminal Kinase 3 (JNK3). [Related pubchem assays: 746 ]
# [12] = target: T3, Corticotropin-releasing factor receptor 2/Corticotropin-releasing factor-binding protein (Homo sapiens, UniProt P24387+Q13324); experiment: activators of CRF receptor 2 with binding protein – uHTS hits, confirmation (AID 602473); format: functional; conditions: read-out: EC50_Mean
# T3 sequence (Q13324 whole entry): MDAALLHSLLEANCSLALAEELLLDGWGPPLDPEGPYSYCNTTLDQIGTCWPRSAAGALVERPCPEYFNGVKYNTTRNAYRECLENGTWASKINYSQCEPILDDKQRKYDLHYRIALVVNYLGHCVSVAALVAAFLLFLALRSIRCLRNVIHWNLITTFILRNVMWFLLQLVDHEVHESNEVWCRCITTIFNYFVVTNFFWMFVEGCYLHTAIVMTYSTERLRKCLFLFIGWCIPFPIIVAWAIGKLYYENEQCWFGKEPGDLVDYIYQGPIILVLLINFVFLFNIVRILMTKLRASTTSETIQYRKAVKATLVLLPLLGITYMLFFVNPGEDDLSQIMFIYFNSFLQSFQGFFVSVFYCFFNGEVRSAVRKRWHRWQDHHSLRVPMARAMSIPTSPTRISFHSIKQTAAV
# T3 sequence (P24387 whole entry): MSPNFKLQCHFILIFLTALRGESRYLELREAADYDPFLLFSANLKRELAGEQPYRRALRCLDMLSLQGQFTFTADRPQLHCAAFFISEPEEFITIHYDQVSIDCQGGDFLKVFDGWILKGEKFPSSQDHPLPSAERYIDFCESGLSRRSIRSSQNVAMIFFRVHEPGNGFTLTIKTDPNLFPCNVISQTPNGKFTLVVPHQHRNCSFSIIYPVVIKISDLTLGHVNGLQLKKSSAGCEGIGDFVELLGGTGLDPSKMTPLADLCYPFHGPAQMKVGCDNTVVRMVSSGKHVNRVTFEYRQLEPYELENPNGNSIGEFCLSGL
# [13] = target: T3, Corticotropin-releasing factor receptor 2/Corticotropin-releasing factor-binding protein; experiment: Dose Response confirmation of uHTS hits for small molecule antagonists of the CRF-binding protein and CRF-R2 receptor complex.; format: functional; conditions: read-out: IC50_Mean
# [14] = target: Heat shock protein HSP 90-alpha (Homo sapiens, UniProt P07900); format: functional, organism-based
# [15] = target: Peroxisome proliferator-activated receptor gamma/Nuclear receptor coactivator 1 (Homo sapiens, UniProt P37231); experiment: (§1) TR-FRET dose response biochemical High Throughput Screening assay for agonists of the steroid receptor coactivator 1 (SRC-1) recruitment by the peroxisome proliferator-activated receptor gamma (PPAR gamma): non-selective agonists. [Related pubchem assays (depositor defined):AID1300, AID1808, AID504735, AID631]; format: protein assay
# [16] = target: Peroxisome proliferator-activated receptor gamma/Nuclear receptor coactivator 3 (Homo sapiens, UniProt P37231); experiment: as §1, with “3 (SRC-3)” for “1 (SRC-1)”, “assays: 1301 (Confirmation screen.), 1048 (Primary screen.)]” for “assays (depositor defined):AID1300, AID1808, AID504735, AID631]”; format: functional
# [17] = target: Peroxisome proliferator-activated receptor gamma/Nuclear receptor coactivator 2 (Homo sapiens, UniProt P37231); experiment: TR-FRET dose response biochemical High Throughput Screening assay for agonists of the steroid receptor coactivator 2 (SRC-2) recruitment by the peroxisome proliferator-activated receptor gamma (PPAR gamma): non-selective agonists. [Related pubchem assays: 1297, 1032 ]; format: functional
# [18] = target: E3 ubiquitin-protein ligase Mdm2 (Homo sapiens, UniProt Q00987); experiment: enhancers of MDM2-luciferase reporter signal, concentration-effect titration, project on inhibitors of MDM2 ubiquitin ligase, cellular assay, luminescent readout, 384-well plate format (AID 1394); format: functional;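 also: MDM2 E3 inhibitors raise luminescence so EC50 is for signal enhancement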
# Chain of Peroxisome proliferator-activated receptor gamma/Nuclear receptor coactivator 2 (P37231 whole entry): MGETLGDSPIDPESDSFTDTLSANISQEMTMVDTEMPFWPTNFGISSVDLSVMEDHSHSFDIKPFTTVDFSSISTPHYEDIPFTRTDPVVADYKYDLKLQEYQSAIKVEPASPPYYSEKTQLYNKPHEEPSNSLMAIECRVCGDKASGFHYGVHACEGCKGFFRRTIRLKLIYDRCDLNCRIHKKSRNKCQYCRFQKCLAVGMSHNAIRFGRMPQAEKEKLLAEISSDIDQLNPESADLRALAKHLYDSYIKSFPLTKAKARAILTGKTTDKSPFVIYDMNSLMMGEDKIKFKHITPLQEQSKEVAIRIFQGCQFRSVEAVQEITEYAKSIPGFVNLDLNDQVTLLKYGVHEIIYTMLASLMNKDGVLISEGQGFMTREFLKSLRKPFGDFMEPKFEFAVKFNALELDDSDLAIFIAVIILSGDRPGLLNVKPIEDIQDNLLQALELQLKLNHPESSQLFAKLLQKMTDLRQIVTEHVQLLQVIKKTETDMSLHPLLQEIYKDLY
# Chain of Peroxisome proliferator-activated receptor gamma/Nuclear receptor coactivator 2 (Q15596 whole entry, further chain): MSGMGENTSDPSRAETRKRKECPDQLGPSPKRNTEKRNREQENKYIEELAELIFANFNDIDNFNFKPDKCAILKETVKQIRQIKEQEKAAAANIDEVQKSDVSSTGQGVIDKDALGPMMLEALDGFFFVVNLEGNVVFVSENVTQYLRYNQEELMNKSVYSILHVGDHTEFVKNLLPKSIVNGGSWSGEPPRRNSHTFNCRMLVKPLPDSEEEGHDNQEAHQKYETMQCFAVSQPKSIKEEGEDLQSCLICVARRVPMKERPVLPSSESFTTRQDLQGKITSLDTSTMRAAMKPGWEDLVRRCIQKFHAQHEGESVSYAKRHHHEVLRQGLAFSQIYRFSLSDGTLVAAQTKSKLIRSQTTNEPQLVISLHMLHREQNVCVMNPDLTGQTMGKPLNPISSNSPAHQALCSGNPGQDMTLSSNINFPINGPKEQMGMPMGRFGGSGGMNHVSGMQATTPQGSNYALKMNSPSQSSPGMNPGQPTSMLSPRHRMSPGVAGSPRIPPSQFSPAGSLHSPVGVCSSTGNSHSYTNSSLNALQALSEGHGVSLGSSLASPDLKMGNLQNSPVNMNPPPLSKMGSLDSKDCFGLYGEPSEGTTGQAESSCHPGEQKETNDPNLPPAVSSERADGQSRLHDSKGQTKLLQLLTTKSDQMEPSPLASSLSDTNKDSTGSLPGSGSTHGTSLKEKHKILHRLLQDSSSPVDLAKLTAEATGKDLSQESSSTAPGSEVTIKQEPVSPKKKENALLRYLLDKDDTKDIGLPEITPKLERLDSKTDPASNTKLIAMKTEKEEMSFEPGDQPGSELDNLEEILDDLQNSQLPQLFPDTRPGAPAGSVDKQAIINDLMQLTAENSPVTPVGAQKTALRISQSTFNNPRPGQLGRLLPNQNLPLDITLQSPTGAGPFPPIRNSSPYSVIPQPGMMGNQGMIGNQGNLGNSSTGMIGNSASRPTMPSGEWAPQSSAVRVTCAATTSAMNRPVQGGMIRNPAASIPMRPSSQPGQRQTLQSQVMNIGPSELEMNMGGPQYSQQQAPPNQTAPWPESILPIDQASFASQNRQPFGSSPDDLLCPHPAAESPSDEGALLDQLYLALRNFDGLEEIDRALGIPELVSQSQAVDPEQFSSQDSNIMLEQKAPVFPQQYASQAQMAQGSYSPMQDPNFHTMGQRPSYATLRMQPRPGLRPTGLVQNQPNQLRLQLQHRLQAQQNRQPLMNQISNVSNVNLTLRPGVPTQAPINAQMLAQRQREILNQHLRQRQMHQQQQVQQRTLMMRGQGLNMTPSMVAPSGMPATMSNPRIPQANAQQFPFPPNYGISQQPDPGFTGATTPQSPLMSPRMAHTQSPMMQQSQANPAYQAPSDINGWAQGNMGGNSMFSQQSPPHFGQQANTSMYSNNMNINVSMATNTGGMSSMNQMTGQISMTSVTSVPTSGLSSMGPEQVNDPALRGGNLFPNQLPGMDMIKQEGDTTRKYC
# Chain of Peroxisome proliferator-activated receptor gamma/Nuclear receptor coactivator 3 (P37231 whole entry): as the sequence (P37231 whole entry) above
# Chain of Peroxisome proliferator-activated receptor gamma/Nuclear receptor coactivator 3 (Q9Y6Q9 whole entry, further chain): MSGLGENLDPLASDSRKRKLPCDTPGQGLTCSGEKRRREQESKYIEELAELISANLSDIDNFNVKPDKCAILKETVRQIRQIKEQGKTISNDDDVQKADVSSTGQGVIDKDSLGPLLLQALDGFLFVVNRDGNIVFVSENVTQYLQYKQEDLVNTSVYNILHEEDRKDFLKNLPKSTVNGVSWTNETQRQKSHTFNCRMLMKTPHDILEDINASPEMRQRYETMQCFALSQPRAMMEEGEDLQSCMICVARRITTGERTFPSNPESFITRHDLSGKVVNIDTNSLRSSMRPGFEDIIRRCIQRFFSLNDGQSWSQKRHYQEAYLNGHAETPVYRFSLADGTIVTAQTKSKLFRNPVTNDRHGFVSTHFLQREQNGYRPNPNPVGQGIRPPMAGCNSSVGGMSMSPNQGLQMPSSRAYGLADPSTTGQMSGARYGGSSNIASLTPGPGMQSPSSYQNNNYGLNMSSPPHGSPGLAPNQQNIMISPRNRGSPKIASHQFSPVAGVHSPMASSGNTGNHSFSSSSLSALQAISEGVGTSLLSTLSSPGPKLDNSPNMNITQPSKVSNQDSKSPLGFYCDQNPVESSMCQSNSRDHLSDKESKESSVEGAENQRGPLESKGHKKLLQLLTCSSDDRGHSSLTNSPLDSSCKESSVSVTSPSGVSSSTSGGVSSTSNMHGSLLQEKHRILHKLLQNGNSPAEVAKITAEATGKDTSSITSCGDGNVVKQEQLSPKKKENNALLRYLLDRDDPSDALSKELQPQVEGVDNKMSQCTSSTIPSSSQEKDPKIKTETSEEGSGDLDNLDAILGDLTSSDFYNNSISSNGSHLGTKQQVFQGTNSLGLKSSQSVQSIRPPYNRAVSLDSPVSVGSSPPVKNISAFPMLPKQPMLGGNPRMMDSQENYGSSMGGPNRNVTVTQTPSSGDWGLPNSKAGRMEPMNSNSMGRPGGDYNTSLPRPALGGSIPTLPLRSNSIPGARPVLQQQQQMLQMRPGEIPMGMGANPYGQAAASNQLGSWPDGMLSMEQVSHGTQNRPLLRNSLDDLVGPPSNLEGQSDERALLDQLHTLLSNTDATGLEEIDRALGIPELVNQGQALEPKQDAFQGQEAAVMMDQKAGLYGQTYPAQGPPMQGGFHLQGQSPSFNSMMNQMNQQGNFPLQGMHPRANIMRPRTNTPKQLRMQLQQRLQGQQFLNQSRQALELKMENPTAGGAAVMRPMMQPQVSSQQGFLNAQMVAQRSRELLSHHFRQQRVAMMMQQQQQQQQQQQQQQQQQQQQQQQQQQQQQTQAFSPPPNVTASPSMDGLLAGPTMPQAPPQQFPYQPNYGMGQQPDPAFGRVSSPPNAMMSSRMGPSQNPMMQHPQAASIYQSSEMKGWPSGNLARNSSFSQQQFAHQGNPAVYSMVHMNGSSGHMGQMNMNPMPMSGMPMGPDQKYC
# Chain of Mitogen-activated protein kinase 10 (P53779 whole entry): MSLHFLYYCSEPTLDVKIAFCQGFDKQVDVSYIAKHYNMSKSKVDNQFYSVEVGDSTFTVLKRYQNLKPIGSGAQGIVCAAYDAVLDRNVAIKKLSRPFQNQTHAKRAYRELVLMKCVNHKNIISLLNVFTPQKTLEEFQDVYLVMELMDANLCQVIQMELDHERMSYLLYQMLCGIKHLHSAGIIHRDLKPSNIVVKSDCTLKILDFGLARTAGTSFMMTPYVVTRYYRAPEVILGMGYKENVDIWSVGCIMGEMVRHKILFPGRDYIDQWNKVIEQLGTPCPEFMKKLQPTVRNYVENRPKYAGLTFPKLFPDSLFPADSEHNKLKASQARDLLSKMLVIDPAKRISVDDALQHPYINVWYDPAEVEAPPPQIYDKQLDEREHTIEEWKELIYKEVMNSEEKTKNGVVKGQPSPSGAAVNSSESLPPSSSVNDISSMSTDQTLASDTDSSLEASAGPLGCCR
# Chain of Paired box protein Pax-8 (Q06710 whole entry): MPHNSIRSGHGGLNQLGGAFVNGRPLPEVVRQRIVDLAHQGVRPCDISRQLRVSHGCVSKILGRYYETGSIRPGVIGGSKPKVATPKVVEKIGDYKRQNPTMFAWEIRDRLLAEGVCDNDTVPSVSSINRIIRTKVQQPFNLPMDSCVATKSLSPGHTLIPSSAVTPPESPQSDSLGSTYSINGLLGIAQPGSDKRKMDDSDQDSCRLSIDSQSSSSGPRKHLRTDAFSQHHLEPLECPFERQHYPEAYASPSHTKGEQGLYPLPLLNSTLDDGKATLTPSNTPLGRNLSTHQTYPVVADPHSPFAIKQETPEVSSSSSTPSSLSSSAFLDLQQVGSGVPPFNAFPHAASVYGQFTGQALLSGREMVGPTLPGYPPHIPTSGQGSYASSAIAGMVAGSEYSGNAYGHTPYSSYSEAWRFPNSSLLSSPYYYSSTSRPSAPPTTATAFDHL
compound,measurement,setting,value
Fc1ccc(Nc2cncc(-c3ccsc3)c2)cc1Cl,IC50,[1],13.6 µM (inactive)
Cc1cc(O)nc(SCC(=O)Nc2ccc(Br)cc2)c1C#N,IC50,[2],15.4 µM (active)
same,EC50,[3],6.89 µM (active)
same,EC50,Streptococcus,20.1 µM (active)
COc1ccccc1NC(=O)c1nc(S(=O)(=O)Cc2ccccc2)ncc1Cl,AC50,Paired box protein Pax-8,8.83 µM (active)
same,AC50,[4],21.1 µM (active)
same,EC50,cells [5],> 350 µM (not active)
same,AC50,INS1,6.44 µM (active)
same,AC50,[6],6.58 µM (active)
same,AC50,[7],8.91 µM (active)
same,AC50,[8],0.492 µM (active)
same,EC50,cells [9],5 µM (active)
same,AC50,[10],14.2 µM (active)
O=C(c1ccccc1)c1nc[nH]c1C(=O)Nc1ccccn1,IC50,[11],> 93.1 µM (not active)
Cc1ccc(S(=O)(=O)Nc2ccc3cc([N+](=O)[O-])ccc3c2[N+](=O)[O-])cc1,EC50,[12],> 53 µM (inactive)
same,IC50,[13],6.45 µM (active)
same,IC50,[2],15 µM (active)
same,AC50,[14],14.9 µM (active)
Fc1ccccc1CSc1ncnc2c1oc1ccccc12,EC50,[15],44.1 µM (inactive)
same,EC50,[16],> 79.4 µM (not active)
same,EC50,[17],20 µM (not active)
COc1cc(C(=O)NCc2cn3ccsc3n2)cc(OC)c1OC,IC50,[11],53.1 µM (not active)
Cc1ccccc1S(=O)(=O)Nc1nc2ccccc2nc1N1CCOCC1,EC50,[15],10.1 µM (inactive)
same,EC50,[16],> 79.4 µM (not active)
same,EC50,[17],11.8 µM (not active)
CCn1nc(C)c(NC(=O)Nc2cccc(Cl)c2Cl)c1C,EC50,[12],> 53 µM (inactive)
same,IC50,[13],36.7 µM (active)
same,IC50,[2],11 µM (active)
Cc1ccc(SCc2noc(-c3c(C)noc3C)n2)cc1,EC50,[12],> 53 µM (inactive)
same,IC50,[13],< 0.368 µM (active)
same,IC50,[2],> 20 µM (inactive)
O=C(Nc1ccncc1)Nc1ccncc1,EC50,[18],8.86 µM (not active)
